# Assay results: PubChem BioAssay AID1996
# Settings: buffer; pH 7.4; 200.0 µM
row,solubility kinetic,Structure (SMILES)
1,4.4 µg/mL,O=C(NC(=S)Nc1ccccc1OC(F)F)c1ccc2c(c1)OCO2
2,3.3 µg/mL,O=C(Nc1cccc(Cl)c1)C1CC1c1ccccc1 (stereo not given)
3,> 73.9 µg/mL,COc1ccccc1NS(=O)(=O)c1cccc(NS(=O)(=O)c2cc(C(=O)O)ccc2OC)c1
4,> 70.1 µg/mL,COc1ccc(NC(C)=O)cc1S(=O)(=O)Nc1ccc(S(=O)(=O)N2CCCCC2)cc1
5,0.4 µg/mL,CCOc1ccc(NC(=O)NCCCCc2ccccc2)cc1
6,28.5 µg/mL,O=C1CCC(=O)N1CC(=O)N1CCCc2ccccc21
7,19.9 µg/mL,CCCOc1ccc(CNC(=O)Cc2cccs2)cc1
8,6.2 µg/mL,CC1CCCN(C(=O)COc2ccc(Nc3ccccc3)cc2)C1 (stereo not given)
9,37.7 µg/mL,COc1ccc2c([N+](=O)[O-])c(N3CCCC3)[nH]c2c1
10,> 41.5 µg/mL,Cc1cc(C)[n+](Cc2ccccc2)cc1C(N)=O.[Cl-]
11,3.7 µg/mL,COC(=O)C1CN(C(=O)COc2cc(C)cc(C)c2)c2ccccc2O1 (stereo not given)
12,0.7 µg/mL,CCOC(=O)/C(C#N)=C/c1c(Oc2cccc(C)c2)nc2ccccn2c1=O
13,> 48.1 µg/mL,CN(C(=O)c1cccc(NC(=O)c2ccco2)c1)c1ccccc1
14,> 41.3 µg/mL,O=C(Nc1ccc(Cl)c(Cl)c1)N1CCOCC1
15,46.2 µg/mL,O=C(Cc1ccc(Cl)cc1)NCCCNC(=O)c1cccnc1
16,> 46.8 µg/mL,O=C(Nc1ccccc1)C1CCCN1/C=C/C(=O)C(F)(F)F (stereo not given)
17,0.3 µg/mL,Brc1cnc2nc(SC/C=C/c3ccccc3)[nH]c2c1
18,< 0.4 µg/mL,COc1cc(C)c(NC(=O)C(=S)NCc2ccccc2)cc1C
19,12.8 µg/mL,Cc1ccc(C(=O)OCC(=O)NCc2ccco2)cc1C
20,> 41.6 µg/mL,Cc1ccc(NC(=O)CCC(=O)N2CCOCC2)nc1
21,4.4 µg/mL,O=C(CN1CCN(c2ccccc2)CC1)c1c[nH]c2ccccc12
22,1.5 µg/mL,COc1ccc(N2C(=O)c3ccccc3S2(=O)=O)cc1

row,solubility kinetic,Structure (SMILES)
1,> 42.5 µg/mL,Nc1cc(Nc2ccccc2)ccn1.O=P(O)(O)O
2,36.4 µg/mL,Cn1cccc1CNC(=S)Nc1ccccc1Cl
3,> 40.8 µg/mL,Cc1ccc(-c2cc(C(=O)N3CCOCC3)no2)cc1
4,> 42.8 µg/mL,CN(CCOC(=O)/C=C/c1ccco1)Cc1ccccc1
5,16.1 µg/mL,COc1cccc(C(=O)NCCSc2c(C)[nH]c3ccccc23)c1OC
6,< 0.2 µg/mL,COc1ccc(NC(=O)Cn2cc(C#N)c3ccccc32)cc1
7,46.3 µg/mL,CC(OC(=O)c1ccc2noc(-c3ccccc3)c2c1)C(N)=O (stereo not given)
8,> 41.9 µg/mL,CC(=O)Nc1cccc(CCc2nc3ccccc3[nH]2)c1
9,3.4 µg/mL,COc1ccc2c(c1)C(=C(C#N)C#N)C(=O)N2CCc1ccccc1
10,> 46.6 µg/mL,O=C(CCNC(=O)c1ccccc1Cl)NCC1CCCO1 (stereo not given)
11,23.5 µg/mL,Cc1cc(=O)[nH]c(SCc2cccc3ccccc23)n1
12,5 µg/mL,O=S(=O)(/N=C(/Nc1nccs1)c1ccc(F)cc1)c1ccccc1
13,8.1 µg/mL,CN(c1ccccc1)S(=O)(=O)c1ccc(C(=O)NCc2ccc(F)cc2)cc1
14,> 44.4 µg/mL,Cc1ccnc2nc(C(=O)OCC(=O)c3ccccc3)nn12
15,> 55.4 µg/mL,COc1ccccc1C(=O)NCCC(=O)NCC(c1ccccc1)N(C)C (stereo not given)
16,> 49.9 µg/mL,CC(=O)N1CCN(c2nnc(-c3ccccc3)c3ccccc23)CC1
17,7.5 µg/mL,CCc1ccc(NC(=O)CCC(=O)c2ccccc2)cc1
18,> 52.6 µg/mL,Cc1cccc(N2N=C(C(=O)OCC(=O)c3ccccc3)CCC2=O)c1
19,10.1 µg/mL,Cc1cc(C)cc(NC(=O)Oc2ccccc2N2CCCCC2)c1
20,> 47.3 µg/mL,CC(=O)c1ccccc1OC(=O)COc1ccc([N+](=O)[O-])cc1
21,> 48.2 µg/mL,CC(C)(C)C(=O)Nc1ccccc1-c1nc2ccccc2[nH]c1=O
22,> 47 µg/mL,COc1ccc(CCNC(=O)C(=O)NCc2ccccn2)cc1

row,solubility kinetic,Structure (SMILES)
1,> 45.7 µg/mL,CCOc1ccc(S(=O)(=O)/N=C(\N)c2ccccc2)cc1
2,39.9 µg/mL,Cc1ccc(/C=C(\NC(=O)c2ccccc2)C(=O)N2CCCCC2)cc1
3,10.2 µg/mL,C=CCn1c(COc2ccccc2OC)nc2ccccc21
4,> 43.4 µg/mL,CCNC(=O)N1CCC(c2nc3ccccc3s2)CC1
5,> 47.3 µg/mL,CN(Cc1ccccc1)C(=O)CN1C(=O)NC2(CCCC2)C1=O
6,< 0.2 µg/mL,COc1ccc2nc(NC(=O)Nc3ccccc3)sc2c1
7,> 41 µg/mL,O=C(c1ccc(F)cc1F)N1CCCc2ccccc21
8,42.4 µg/mL,NS(=O)(=O)c1cccc(C(=O)NC2CCSc3ccccc32)c1 (stereo not given)
9,23.2 µg/mL,CO/N=C(\c1ccccc1)c1cccnc1
10,53.3 µg/mL,CCOc1ccc(S(=O)(=O)Nc2ccc(C(=O)N3CCCC3)cc2)cc1
11,25.7 µg/mL,CN(Cc1ccccc1)C(=O)c1ccccc1C(=O)OCC(=O)N(Cc1ccccc1)C(C)(C)C
12,> 45 µg/mL,CNC(=O)CN1C(=O)NC(Cc2c[nH]c3ccccc23)C1=O (stereo not given)
13,32.5 µg/mL,c1ccc(Oc2cccc3cccnc23)nc1
14,28.6 µg/mL,CCC(=O)Nc1ccc(NCc2ccc(-c3ccccc3)cc2)cc1
15,33.5 µg/mL,Cn1cnc([N+](=O)[O-])c1NCc1ccccc1
16,28.9 µg/mL,Cc1ccc(CNC(=O)CN2C(C)CCCC2C)cc1 (stereo not given)
17,28 µg/mL,CCOC(=O)N1CCN(C(c2cccnc2)c2ccc3cccnc3c2O)CC1 (stereo not given)
18,15.9 µg/mL,CC1CCCCC1NC(=O)CCCN1C(=O)c2ccccc2C1=O (stereo not given)
19,> 62.4 µg/mL,Cc1oc2c(cc(NS(=O)(=O)c3ccc(Cl)cc3)c3ccccc32)c1C(=O)O
20,2.2 µg/mL,Cc1ccc(NC(=S)N2CCC(NC(=O)c3ccc(C)cc3)CC2)cc1

# The next lines start with the compound.
row,Structure (SMILES),solubility kinetic
1,CNC(=O)c1oc(-c2ccc(Cl)cc2)nc1C,> 37.6 µg/mL
2,CC(C)(ONC(=O)Nc1ccccc1Cl)C(=O)O,> 40.9 µg/mL
3,Cc1cc(F)c(F)c(C(=O)N2C(C)CCCC2C)c1Cl (stereo not given),14.5 µg/mL
4,CC(=O)c1c(C)[nH]c(C(=O)COC(=O)c2ccc(C)s2)c1C,3.5 µg/mL
5,CC(=O)C(C)Oc1ccc(Cc2ncc(C(F)(F)F)cc2Cl)cc1 (stereo not given),13.1 µg/mL
6,CCOc1ccc(S(=O)(=O)Nc2ccc3c(c2)OCO3)cc1,45.4 µg/mL
7,O=C(O)c1cc(NC(=O)C2CCCO2)cc(C(=O)O)c1 (stereo not given),> 41.9 µg/mL
8,CCN(C(=O)c1ccco1)c1nc(-c2ccc(OC)cc2)cs1,< 0.4 µg/mL
9,Cc1cccc(C(=O)Nc2sc3c(c2C(=O)O)CCCC3)c1,6.9 µg/mL
10,Cc1ccc(OCCN2CCCC2)cc1.O=C(O)C(=O)O,> 44.3 µg/mL
11,CC(=O)c1ccc(NC(=S)NC2CCCC(C)C2C)cc1 (stereo not given),9.7 µg/mL
12,Nc1ccc(C(=O)OCC(=O)NC2CC2)cc1[N+](=O)[O-],> 41.9 µg/mL
13,CCOCCCNC(=O)/C(C#N)=C/c1ccc([N+](=O)[O-])o1,24 µg/mL
14,CCc1c(C(=O)Nc2cc(C(=O)OC)ccc2C)csc1C,1 µg/mL
15,CC(=O)c1ccc(NC(=O)COC(=O)CC2CC3CCC2C3)cc1 (stereo not given),37.5 µg/mL
16,COC(=O)Nc1nn(-c2ccc(OC)cc2)c(=O)c(C#N)c1C,> 47.1 µg/mL
17,CCC1CCc2sc(C(=O)NCC3CCCO3)cc2C1 (stereo not given),42.3 µg/mL
18,COc1ccc(NC(=O)C(=O)Nc2cccc3cccnc23)cc1OC,< 0.3 µg/mL
19,O=S(=O)(Nc1ccc2c(c1)OCCO2)c1cccc(F)c1,> 46.4 µg/mL

row,Structure (SMILES),solubility kinetic
1,Cc1ccc(OCC(O)CN2CCOCC2)cc1C.Cl (stereo not given),> 45.3 µg/mL
2,CCc1c(C(=O)NCCc2cccc(C)c2)[nH]c(C)c1C(C)=O,5 µg/mL
3,CCCN(CC(=O)Nc1ccc(F)c(F)c1F)C(=O)c1ccc2c(c1)NC(=O)CS2,11.2 µg/mL
4,Nc1cccc(C(=O)O)c1,> 20.6 µg/mL
5,CC(=O)Nc1ccc(N/C=C/C(=O)c2ccc(Br)cc2)cc1,1 µg/mL
6,COC(=O)Cc1c(O)ccn(C2CC2)c1=O,> 33.5 µg/mL
7,Cc1ccc2nc(N3CCOCC3)c(C=O)cc2c1,25.8 µg/mL
8,Cc1ccc(NC(=O)CCNC(=O)c2ccc(Cl)cc2)cc1C,1.7 µg/mL
9,COC(=O)c1sccc1NC(=O)Nc1cccc(OC)c1,> 46 µg/mL
10,COc1ccc(OC)c(NC(=O)c2ccno2)c1,> 37.2 µg/mL
11,CC(C)NCC(O)c1ccc(O)c(O)c1.Cl (stereo not given),> 37.2 µg/mL
12,CN(C(=O)COc1ccc(Br)cc1Cl)C1CCCCC1,19.8 µg/mL
13,COc1ccc(C(=O)NCC(=O)OCCOc2ccc(Cl)cc2)cc1OC,13.6 µg/mL
14,O=C(O)C(=O)Nc1nc(-c2ccc3c(c2)OCCO3)cs1,> 45.9 µg/mL
15,O=C(COC(=O)C1CC2CCCC(C1)C2=O)NC1CCCCC1 (stereo not given),> 48.2 µg/mL
16,COc1ccc(/C(N)=N/OC(=O)CC2CCCCC2)cc1,2.8 µg/mL
17,O=C(NCCO)/C(=C/c1cccc([N+](=O)[O-])c1)NC(=O)c1ccco1,> 51.8 µg/mL
18,CCc1ccc2nc(N)sc2c1,> 26.7 µg/mL
19,N#CC1(NC(=O)Cn2cc(C(F)(F)F)cc(Cl)c2=O)CCCCC1,13.8 µg/mL

row,Structure (SMILES),solubility kinetic
1,CCOc1ccc(NC(=O)CCN2C(=S)NC(C)(C)CC2C)cc1 (stereo not given),41.5 µg/mL
2,S=C(Nc1ccccn1)NC1CCCCC1,5.7 µg/mL
3,CCN1CCCC1CNC(=S)Nc1ccc(C(C)=O)cc1 (stereo not given),> 45.8 µg/mL
4,NC1=NC(=O)C(Cc2ccc(F)cc2)S1 (stereo not given),22 µg/mL
5,Cc1ccc(O)c(NC(=O)c2cc(-c3ccco3)on2)c1,1.2 µg/mL
6,CC(=O)C1=C(C)NC(=O)NC1c1ccc2c(c1)OCO2 (stereo not given),> 41.1 µg/mL
7,CCOc1ccc(S(=O)(=O)NCc2cccnc2)cc1C(C)C,> 50.2 µg/mL
8,Cc1cccc(C)c1NC(=O)CNC(=O)COC(=O)c1ccc(Cl)s1,23.9 µg/mL
9,NS(=O)(=O)c1ccc(NC(=O)Cc2cccs2)cc1,> 44.5 µg/mL
10,Cc1cc(NC(=O)c2ccno2)no1,> 29 µg/mL
11,Cc1ccc(C(=O)NCC(=O)Nc2ccncc2)s1,> 41.3 µg/mL
12,COc1ccc(OC)c(NC(=O)COC(=O)/C=C/c2ccco2)c1,10.4 µg/mL
13,COc1ccc(Nc2cc(Sc3ccc(OC)cc3)ncn2)cc1,4.6 µg/mL
14,CCc1cccc2c1NC1(CCCC1)CC2C.Cl (stereo not given),< 0.6 µg/mL
15,COC(=O)c1ccccc1NC(=S)N(C)C,34.2 µg/mL
16,Cc1ccc(OCCN2C(=O)C(=O)c3cc(C)ccc32)cc1,4.1 µg/mL
17,CCCN1CCOC(CC(=O)Nc2ccc([N+](=O)[O-])cc2)C1=O (stereo not given),38 µg/mL
18,CCOc1cc(/C=C2\N=C(C)OC2=O)cc(Cl)c1OCC(=O)OC,23.1 µg/mL
